Test [1] addresses dopamine D2L receptor (Homo sapiens, UniProt P14416). The test can be described thus: dopamine D2L receptor affinity. The format is binding.
In test [2] the target is dopamine D2S receptor (Homo sapiens, UniProt P14416). The test can be described thus: dopamine D2S receptor affinity. The format is binding.
For test [3], the target named is T1, serotonin 5-HT2B receptor (Homo sapiens, UniProt P41595). In words: serotonin 5-HT2B receptor affinity. The format is binding.
The target of test [4] is T2, dopamine D2 receptor (Homo sapiens, UniProt P14416). In words: functional activity at dopamine D2 receptor. As to conditions: Compound 2. The format is biochemical.
Test [5] deals with T1, serotonin 5-HT2B receptor. In words: functional activity at serotonin 5-HT2B receptor. The format is biochemical. The note with it: Compound 2.
Test [6] concerns the target T3, serotonin 5-HT1A receptor (Homo sapiens, UniProt P08908).
T3 sequence (P08908 1-422): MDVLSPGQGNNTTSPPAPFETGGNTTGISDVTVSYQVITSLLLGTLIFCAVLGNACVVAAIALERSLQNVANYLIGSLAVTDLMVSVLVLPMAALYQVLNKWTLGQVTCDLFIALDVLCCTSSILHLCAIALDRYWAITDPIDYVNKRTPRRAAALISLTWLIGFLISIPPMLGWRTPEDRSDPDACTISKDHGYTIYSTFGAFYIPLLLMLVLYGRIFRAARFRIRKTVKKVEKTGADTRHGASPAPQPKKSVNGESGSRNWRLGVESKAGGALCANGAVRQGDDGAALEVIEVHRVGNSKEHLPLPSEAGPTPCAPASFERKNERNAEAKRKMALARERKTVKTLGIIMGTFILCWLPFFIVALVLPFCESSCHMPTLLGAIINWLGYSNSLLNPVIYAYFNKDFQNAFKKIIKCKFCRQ
As to conditions: Compound 2.

Test [7] deals with T3, serotonin 5-HT1A receptor. In words: biochemical.
Test [8] has as its system prenatally valproate-treated rats. The test can be described thus: maternal deprivation-induced ultrasonic vocalization in rat pups, prenatal valproate model. The format is in vivo, Wistar rats. As to conditions: acute p.o.; effect at 0.003, 0.03 and 0.1 mg/kg (0.01 mg/kg also tested); Figure 1. As to the method:
Ultrasonic call counts are recorded for 10 min.

Test [9] shares this test system. In words: social play behavior, prenatal valproate model. The format is in vivo, Wistar rats. The note with it: p.o. daily for 8 days; 0.003-0.1 mg/kg, significant at 0.1 mg/kg; male offspring; Figure 3.
Experimental: Offspring are housed according to standard laboratory conditions until time of behavioral testing. Animals are housed in groups of 4 in conventional cages and maintained at 22-24°C on a standard 12 hour light/dark cycle, with food and water available ad libitum. After investigational drug treatment, offspring are examined behaviorally in tests relevant for the assessment of autistic behavior. These tests include maternal deprivation-induced ultrasonic vocalization in rat pups, social play, social preference and the open field. […] At postnatal day 30, following 8 days treatment with the test compound, prenatally VPA-treated rats are evaluated for juvenile play behavior. The test is carried out in a novel test arena with pairs of animals from the same treatment group over a 15-min trial. Animals are scored for play activity measured by duration of social play behavior. Statistical analysis employs one-way ANOVA and the post hoc Dunnett test.
For test [10] the test system is unchanged. In words: open field assay, prenatal valproate model. The note with it: p.o. daily for 9 days, 0.003-0.1 mg/kg, male offspring. The format is in vivo, Wistar rats.
Experimental: Offspring are housed according to standard laboratory conditions until time of behavioral testing. Animals are housed in groups of 4 in conventional cages and maintained at 22-24°C on a standard 12 hour light/dark cycle, with food and water available ad libitum. After investigational drug treatment, offspring are examined behaviorally in tests relevant for the assessment of autistic behavior. These tests include maternal deprivation-induced ultrasonic vocalization in rat pups, social play, social preference and the open field. […] At postnatal day 31-32, animals are scored for locomotor activity and exploratory behavior in a 10-min trial in an open field test arena after 9-day oral treatment with the test compound. Activity is analysed for readouts of repetitive/stereotypic behaviors such as total distance moved and frequency of circling behavior. Statistical analysis employs one-way ANOVA and the post hoc Dunnett test.
Test [11] addresses T2, dopamine D2 receptor. As to conditions: literature; cited from earlier work.
Test [12] has as its target T1, serotonin 5-HT2B receptor. The note with it: literature; cited from earlier work.
The target of test [13] is T3, serotonin 5-HT1A receptor. The note with it: cited from earlier work.

“Also recorded” adds a separate entry of the source. Read-outs that look alike come from different tables or passages of the source.

T1 sequence (P41595 whole entry): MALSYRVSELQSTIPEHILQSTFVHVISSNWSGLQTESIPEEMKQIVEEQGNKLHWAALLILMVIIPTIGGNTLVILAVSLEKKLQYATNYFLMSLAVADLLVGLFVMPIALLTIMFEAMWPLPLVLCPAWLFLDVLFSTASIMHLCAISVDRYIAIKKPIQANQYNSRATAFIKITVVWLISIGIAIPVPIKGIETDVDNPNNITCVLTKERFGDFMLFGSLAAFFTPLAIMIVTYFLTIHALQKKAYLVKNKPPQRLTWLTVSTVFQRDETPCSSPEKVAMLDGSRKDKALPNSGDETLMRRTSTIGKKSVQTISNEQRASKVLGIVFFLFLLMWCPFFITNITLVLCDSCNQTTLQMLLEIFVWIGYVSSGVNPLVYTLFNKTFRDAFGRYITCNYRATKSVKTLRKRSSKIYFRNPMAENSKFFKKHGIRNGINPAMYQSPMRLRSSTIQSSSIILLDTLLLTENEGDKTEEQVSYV
T2 sequence (P14416 whole entry): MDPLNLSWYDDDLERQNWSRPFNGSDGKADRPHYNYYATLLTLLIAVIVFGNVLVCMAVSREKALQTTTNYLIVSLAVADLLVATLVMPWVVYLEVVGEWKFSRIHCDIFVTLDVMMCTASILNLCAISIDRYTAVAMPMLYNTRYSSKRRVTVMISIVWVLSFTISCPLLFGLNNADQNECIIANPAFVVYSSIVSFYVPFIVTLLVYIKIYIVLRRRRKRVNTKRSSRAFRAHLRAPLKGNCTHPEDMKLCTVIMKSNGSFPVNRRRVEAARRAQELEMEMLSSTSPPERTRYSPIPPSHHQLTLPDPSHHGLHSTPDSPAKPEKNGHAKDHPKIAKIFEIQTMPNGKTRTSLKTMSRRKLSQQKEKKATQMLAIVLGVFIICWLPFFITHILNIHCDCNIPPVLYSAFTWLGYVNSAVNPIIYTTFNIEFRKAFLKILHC
Chain of dopamine D2S receptor (P14416 1-414 isoform P14416-2): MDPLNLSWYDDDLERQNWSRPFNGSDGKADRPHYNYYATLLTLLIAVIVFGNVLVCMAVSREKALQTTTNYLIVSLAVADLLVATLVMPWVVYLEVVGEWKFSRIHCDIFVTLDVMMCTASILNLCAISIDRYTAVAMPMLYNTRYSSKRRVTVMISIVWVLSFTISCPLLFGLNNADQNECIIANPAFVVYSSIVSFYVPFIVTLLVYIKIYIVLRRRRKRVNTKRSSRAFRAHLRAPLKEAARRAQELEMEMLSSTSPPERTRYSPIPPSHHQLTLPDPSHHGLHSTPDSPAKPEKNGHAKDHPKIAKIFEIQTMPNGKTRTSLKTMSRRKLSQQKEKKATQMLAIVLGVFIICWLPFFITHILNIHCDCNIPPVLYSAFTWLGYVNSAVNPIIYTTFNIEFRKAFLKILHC
Chain of dopamine D2L receptor (P14416 whole entry): as the sequence (P14416 whole entry) above

In general, Ki refers to the equilibrium dissociation constant of an inhibitor or competing ligand from its target. Low readings indicate a stronger hold on the target, high ones a looser hold on the target. For the molecule `O=C(N[C@H]1CC[C@H](CCN2CCN(c3cccc(Cl)c3Cl)CC2)CC1)N1CCOCC1` [Compound 2, trans-N-(4-{2-[4-(2,3-dichloro-phenyl)-piperazine-1-yl]-ethyl}-cyclohexyl)-morpholine-4 carboxamide], the Ki in [1] is 0.4 nM; in test [2], 0.52 nM; in test [3], 1.11 nM; in test [7], 5.73 nM. Besides, in [4], the “functional character at the dopamine D2 receptor” value is recorded as “partial agonist”. Moreover, in test [5], the “functional character at the serotonin 5-HT2B receptor” value is listed as “full antagonist”. In test [6], the “functional character at the serotonin 5-HT1A receptor” value is “weak partial agonist”.
For `CN(C)C(=O)N[C@H]1CC[C@H](CCN2CCN(c3cccc(Cl)c3Cl)CC2)CC1` [cariprazine, trans-N-[4-[2-[4-(2,3-dichlorophenyl)piperazin-1-yl]ethyl]cyclohexyl]-N',N'-dimethylurea], the “isolation-induced vocalizations (number of USV vocalizations)” value in test [8] is reported as “statistically significant; also recorded: fully reversed”. Moreover, in test [9], the “social play deficit (time spent playing)” value is reported as “statistically significant; also recorded: partially nevertheless, significantly reversed”. In addition, the “excessive motility / hyperactivity (distance travelled)” value in test [10] (significant at 0.1 mg/kg, Figure 4) is listed as “fully reversed”. In addition, the “excessive circling behavior (number of 360-degree turns)” value in test [10] (significant at all doses, Figure 5) is given as “statistically significant; also recorded: fully reversed”. Besides, in test [11], the “functional character at the dopamine D2 receptor” value was “partial agonist”. For the same molecule, the “functional character at the serotonin 5-HT2B receptor” value in [12] is recorded as “full antagonist”. Also, the “intrinsic activity at the serotonin 5-HT1A receptor” value in [13] (literature (Heusler et al. 2016; Kiss et al. 2010)) is given as 38%. Moreover, the “functional character at the serotonin 5-HT1A receptor” value in [13] (literature) is on record as “weak partial agonist”.
